Earlier results, collected in article PMC7287799 (Molecules, 2020).

Test system: E. coli IMPDH

**Q.** With NC(=O)c1ncn([C@@H]2O[C@H](CO)[C@@H](O)[C@H]2O)c1O [Mizoribine] as the compound, how does the Ki read?
**A.** 500 nM
